# In patent US10344017B2, “Pyrrolcarboxamide derivatives for the inhibition of ERK5” (CANCER RESEARCH TECHNOLOGY LIMITED, priority 2014, dated 2019):
# Legend:
# [1] = test system: HA-ERK5-ΔP493 (MEK5D-activated, MEF2D-Gal4/Gal4-Luc reporter) in HEK293T cells; assay: Truncated dual-luciferase reporter assay, HEK293T forward transfection; type: cell-based; settings: Homo sapiens, HEK-293T, average where more than one data point, read-out: Truncated ERK 5 Reporter Assay
# Description: Truncated Dual-Luciferase Reporter Assay
# HEK293T and HeLa Forward Transfection
# Constitutively-active, EGFP-tagged MEK5 (EGFP-MEK5D; 0.5 μg/μl), an EGFP-tagged construct containing no MEK5D (EGFP-C3; 0.5 μg/μl), and HA-tagged ERK5 with C-terminal truncation (HA-ERK5-ΔP493; 0.51 μg/μl) were diluted separately in sterile distilled water. Plasmid DNA and Lipofectamine 2000 (Invitrogen) were separately diluted in Opti-MEM growth media (reduced serum medium, Invitrogen), and incubated at room temperature for 5 min. Plasmid DNA (Tube A) and Lipofectamine 2000 (Tube B) were then combined and incubated for 20 min at room temperature to complex. Cells were then transfected by addition of 16 μl of the respective transfection mixture: 3 wells with EGFP-C3-containing (control) and 21 wells with MEK5D-containing transfection mixture (final volume, 100 μl). Cells were subsequently incubated for 4 h at 37° prior to addition of potential ERK5-inhibitory compounds.
# Addition of Compounds to ERK5-Transfected HEK293T or HeLa Cells
# Potential ERK5-inhibitory compounds were prepared as a 2× solution by addition of 2 μl compound (or DMSO as control) to 1 ml standard culture medium. Compounds were tested in triplicate at a concentration range of 0.003 μM, 0.01 μM, 0.03 μM, 0.1 μM, 0.3 μM and 1 μM (or 0.03 μM, 0.1 μM, 0.3 μM, 1 μM, 3 μM and 10 μM for BIX02189) by addition of 100 μl 2× solution to 100 μl transfected cells (final DMSO, 0.1% v/v). Cells were incubated for 24 h at 37° C.
# Cell Lysis and Luciferase Quantification
# After 24 h incubation in the absence (control) or presence of potential inhibitor, the culture medium was aspirated and cells lysed in 20 μl 1× passive lysis buffer (Dual-Luciferase Reporter Assay System, Promega) for a minimum of 15 min with agitation. Lysates were further processed immediately or stored at −80° C. Cellular inhibition of ERK5 was quantified using the Dual-Luciferase Reporter Assay System (Promega). Luciferase assay buffer/Luciferase assay substrate and Stop and Glo assay buffer/Stop and Glo substrate were prepared according to the manufacturer's instructions. Luciferase reagent (50 μl/well) was added immediately before luminescence detection using a FLUOstar Omega plate reader (BMG Labtech). Stop and Glo reagent (50 μl/well) was subsequently added, and the Renilla luciferase signal (transfection efficiency control) quantified.
# The ERK5-specific signalling activity was calculated by subtraction of the EGFP-C3 luciferase signal from the EGFP-MEK5D-induced luminescence. Luminescence in the absence of potential ERK5 inhibitor (DMSO control) was taken as 100% ERK5 activity. […] Unless stated otherwise, data are mean±standard deviation of three independent experiments.
# ERK5 = biological target: T1, ERK5 (Homo sapiens, UniProt Q13164); assay: ERK5 IMAP assay (fluorescence polarisation); type: biochemical; settings: average (e.g. geometric mean) where more than one data point; read-out: ERK5 IC50
# T1 construct: made in house
# T1 sequence (Q13164 whole entry): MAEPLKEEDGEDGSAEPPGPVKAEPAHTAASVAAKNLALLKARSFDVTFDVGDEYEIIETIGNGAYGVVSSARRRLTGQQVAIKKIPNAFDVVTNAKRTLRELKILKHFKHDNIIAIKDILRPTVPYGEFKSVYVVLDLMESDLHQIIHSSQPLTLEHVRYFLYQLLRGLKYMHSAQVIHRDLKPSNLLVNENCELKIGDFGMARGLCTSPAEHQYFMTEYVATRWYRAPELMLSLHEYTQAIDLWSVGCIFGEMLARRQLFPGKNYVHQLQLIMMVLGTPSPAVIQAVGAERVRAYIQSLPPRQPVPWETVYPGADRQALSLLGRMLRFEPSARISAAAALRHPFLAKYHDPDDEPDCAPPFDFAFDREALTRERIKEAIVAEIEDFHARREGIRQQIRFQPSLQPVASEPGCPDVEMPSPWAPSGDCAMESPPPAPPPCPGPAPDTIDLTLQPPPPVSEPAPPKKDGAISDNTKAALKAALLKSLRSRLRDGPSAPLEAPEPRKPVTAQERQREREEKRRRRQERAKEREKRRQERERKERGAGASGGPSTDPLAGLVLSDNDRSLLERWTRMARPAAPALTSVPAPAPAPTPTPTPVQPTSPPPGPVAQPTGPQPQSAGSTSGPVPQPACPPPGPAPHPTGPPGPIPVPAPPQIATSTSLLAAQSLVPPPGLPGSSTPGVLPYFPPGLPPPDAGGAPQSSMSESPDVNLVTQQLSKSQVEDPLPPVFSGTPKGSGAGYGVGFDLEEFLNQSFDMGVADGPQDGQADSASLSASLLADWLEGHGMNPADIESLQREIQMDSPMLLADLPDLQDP
# [2] = test system: ERK5 autophosphorylation in HeLa cells; assay: EGF-stimulated HeLa cell assay (ERK5 autophosphorylation, Western blot); type: cell-based; settings: Homo sapiens, average where more than one data point
# Description: EGF-Stimulated HeLa Cell Assay
# HeLa cells were serum starved overnight followed by treatment with ERK5 inhibitors for 1 hr. Cells were then stimulated with 100 ng/ml EGF for 10 or 15 min. The cells were harvested and lysed at 4° C. for 5-10 min in Laemmli buffer containing Halt protease and […] (Pierce). The lysates were boiled for 10 min at 100° C. Twenty microliters sample was run on 6% or 7.5% Tris-glycine gels and transferred to nitrocellulose. […] The IC50 was calculated from densitometry of top bands.
# [3] = test system: ERK5 (HA-ERK5 wt activated by EGFP-MEK5D, MEF2D-Gal4/Gal4-Luc reporter) in HEK293 cells; assay: Dual-luciferase reporter assay (ERK5 reporter), reverse-transfected HEK293 cells; settings: Homo sapiens, HEK293, read-out: ERK 5 Reporter Assay
# Description: Trypsinizing of Adherent Cell Colonies
# Cells were regularly passaged in order to maintain optimum colony sizes on plates. In order to do this, and to harvest cells for use in the dual-luciferase reporter assay, adherent cells were lifted from tissue culture dishes. Cell media was removed via aspiration, and the cell monolayer was washed with phosphate buffered saline (PBS) solution (10 mL), which was then aspirated.
# Reverse Transfection of HEK293 Cells
# Preparation of EGFP Control (C3) Working Solution (for 1×96 Well Plate)
# Preparation of HEK293 Cells for Reverse Transfection
# Trypsinized HEK293 cells were re-suspended in 19 mL of fresh cell media and counted using haemocytometry. Cells were then diluted with fresh cell media to achieve a final cell concentration of 2×10^5 cells/mL. 1237.5 μL and 7425 μL of this cell media was added to the C3 and 5D working solutions respectively. 100 μL of the transfected cells were then aliquoted into the appropriate wells in a 96-well opaque sided tissue culture plate, and incubated at 37° C. for 6 h.
# Addition of Compounds to HEK293 Cells
# 4 compounds was assayed per 96-well plate. For each compound, 1 mL of growth media was added to eight 1.5 mL Eppendorf® tubes. 6 μL of DMSO was added to two tubes for C3 and blank 5D wells, and 6 μL of the relevant compound stock solution was added to the 6 remaining tubes. […] Solutions of drug in media were thoroughly mixed, and 100 μL of the relevant compound was transferred (in triplicate) to the 96-well plate containing transfected HEK293 cells using an electronic multichannel pipette with variable tip spacing. Sealed plates were incubated at 37° C. for 24 h. Final compound concentrations were as follows; 30 μM, 10 μM, 3 μM, 1 μM and 0.3 μM.
# 15 mL of 1× passive lysis buffer (PLB) was prepared using 5×PLB (Dual-Luciferase Reporter Assay System, Promega® E1960), diluting with H2O. Assay plates prepared were removed from the incubator and the growth media removed by aspiration.
Structure (SMILES),IC50 [1] [nM],IC50 (ERK5) [nM],IC50 [2] [nM],IC50 [3] [nM]
"O=C(Nc1ccc(CN2CCOCC2)nc1)c1cc(C(=O)c2c(Cl)ccc(Cl)c2F)c[nH]1 [Example 115, 4-(3,6-Dichloro-2-fluorobenzoyl)-N-(6-(morpholinomethyl)pyridin-3-yl)-1H-pyrrole-2-carboxamide]",31,26.5,,
"CN(c1ccc(NC(=O)c2cc(C(=O)c3c(Cl)ccc(Cl)c3F)c[nH]2)cn1)C1CCNCC1 [Example 107, 4-(3,6-Dichloro-2-fluorobenzoyl)-N-(6-(methyl(piperidin-4-yl)amino)pyridin-3-yl)-1H-pyrrole-2-carboxamide]",,24.6,450,
"O=C(Nc1ccc(CN2CCCCC2)nc1)c1cc(C(=O)c2c(Cl)ccc(Cl)c2F)c[nH]1 [Example 284, 4-(3,6-Dichloro-2-fluorobenzoyl)-N-(6-(piperidin-1-ylmethyl)pyridin-3-yl)-1H-pyrrole-2-carboxamide]",13,9,,
"O=C(Nc1cnc(NCCN2CCCC2)nc1)c1cc(C(=O)c2c(Cl)ccc(Cl)c2F)c[nH]1 [Example 102, 4-(3,6-Dichloro-2-fluorobenzoyl)-N-(2-((2-(pyrrolidin-1-yl)ethyl)amino)pyrimidin-5-yl)-1H-pyrrole-2-carboxamide]",85,16.6,,
"COc1ccc(Cl)c(C(=O)c2c[nH]c(C(=O)Nc3ccc(CN4CCN(C)CC4)nc3)c2)c1F [Example 246, 4-(6-Chloro-2-fluoro-3-methoxybenzoyl)-N-(6-((4-methylpiperazin-1-yl)methyl)pyridin-3-yl)-1H-pyrrole-2-carboxamide]",69,8.5,,
"COc1ccc(Cl)c(C(=O)c2c[nH]c(C(=O)NC3CCN(C)CC3)c2)c1F [Example 70, 4-(6-chloro-2-fluoro-3-methoxybenzoyl)-N-(1-methylpiperidin-4-yl)-1H-pyrrole-2-carboxamide]",,57.9,1700,477
"O=C(Nc1cnc(CC2CCNCC2)nc1)c1cc(C(=O)c2c(Cl)ccc(Cl)c2F)c[nH]1 [Example 253, 4-(3,6-Dichloro-2-fluorobenzoyl)-N-(2-(piperidin-4-ylmethyl)pyrimidin-5-yl)-1H-pyrrole-2-carboxamide]",239,7.5,,
"O=C(Nc1cnn(C2CNC2)c1)c1cc(C(=O)c2c(Cl)ccc(Cl)c2F)c[nH]1 [Example 54, N-(1-(Azetidin-3-yl)-1H-pyrazol-4-yl)-4-(3,6-dichloro-2-fluorobenzoyl)-1H-pyrrole-2-carboxamide]",,31.7,140,
"CN(C)Cc1ccc(NC(=O)c2cc(C(=O)c3c(Cl)ccc(Cl)c3F)c[nH]2)cn1 [Example 277, 4-(3,6-Dichloro-2-fluorobenzoyl)-N-(6-((dimethylamino)methyl)pyridin-3-yl)-1H-pyrrole-2-carboxamide]",36,22,,
"CCN(CC)CCNc1ccc(NC(=O)c2cc(C(=O)c3c(Cl)ccc(Cl)c3F)c[nH]2)cn1 [Example 262, 4-(3,6-Dichloro-2-fluorobenzoyl)-N-(6-((2-(diethylamino)ethyl)amino)pyridin-3-yl)-1H-pyrrole-2-carboxamide]",149,18.5,,
"COc1ccc(Cl)c(C(=O)c2c[nH]c(C(=O)Nc3cnc(CN4CCN(C)CC4)nc3)c2)c1F [Example 245, 4-(6-Chloro-2-fluoro-3-methoxybenzoyl)-N-(2-((4-methylpiperazin-1-yl)methyl)pyrimidin-5-yl)-1H-pyrrole-2-carboxamide]",461,13,,
"O=C(Nc1ccc(NCCN2CCOCC2)nc1)c1cc(C(=O)c2c(Cl)ccc(Cl)c2F)c[nH]1 [Example 276, 4-(3,6-Dichloro-2-fluorobenzoyl)-N-(6-((2-morpholinoethyl)amino)pyridin-3-yl)-1H-pyrrole-2-carboxamide]",125,58.1,,
O=C(Nc1ccc(CN2CCC(O)CC2)nc1)c1cc(C(=O)c2c(Cl)ccc(Cl)c2F)c[nH]1 [Example 282],44,6.7,,
"O=C(Nc1cnc(NCCN2CCCCC2)nc1)c1cc(C(=O)c2c(Cl)ccc(Cl)c2F)c[nH]1 [Example 104, 4-(3,6-Dichloro-2-fluorobenzoyl)-N-(2-((2-(piperidin-1-yl)ethyl)amino)pyrimidin-5-yl)-1H-pyrrole-2-carboxamide]",90,10.4,,
"CN(C)CCNc1ncc(NC(=O)c2cc(C(=O)c3c(Cl)ccc(Cl)c3F)c[nH]2)cn1 [Example 99, 4-(3,6-Dichloro-2-fluorobenzoyl)-N-(2-((2-(dimethylamino)ethyl)amino)pyrimidin-5-yl)-1H-pyrrole-2-carboxamide]",122,15.3,,
"COc1ccc(Cl)c(C(=O)c2c[nH]c(C(=O)Nc3ccc(N4CCNCC4)nc3)c2)c1F [Example 69, 4-(6-Chloro-2-fluoro-3-methoxybenzoyl)-N-(6-(piperazin-1-yl)pyridin-3-yl)-1H-pyrrole-2-carboxamide]",,15.7,700,
"O=C(Nc1cccnc1)c1cc(C(=O)c2c(Cl)ccc(Cl)c2F)c[nH]1 [Example 172, 4-(3,6-Dichloro-2-fluorobenzoyl)-N-(pyridin-3-yl)-1H-pyrrole-2-carboxamide]",,65.6,190,598
"O=C(Nc1cnc(NCCN2CCOCC2)nc1)c1cc(C(=O)c2c(Cl)ccc(Cl)c2F)c[nH]1 [Example 103, 4-(3,6-Dichloro-2-fluorobenzoyl)-N-(2-((2-morpholinoethyl)amino)pyrimidin-5-yl)-1H-pyrrole-2-carboxamide]",135,36.8,,
"O=C(Nc1ccc(CC2CCNCC2)nc1)c1cc(C(=O)c2c(Cl)ccc(Cl)c2F)c[nH]1 [Example 111, 4-(3,6-Dichloro-2-fluorobenzoyl)-N-(6-(piperidin-4-ylmethyl)pyridin-3-yl)-1H-pyrrole-2-carboxamide]",,5.1,290,
"O=C(Nc1cnc(NC2CCN(C3CC3)CC2)nc1)c1cc(C(=O)c2c(Cl)ccc(Cl)c2F)c[nH]1 [Example 25, N-(2-((1-Cyclopropylpiperidin-4-yl)amino)pyrimidin-5-yl)-4-(3,6-dichloro-2-fluorobenzoyl)-1H-pyrrole-2-carboxamide]",,49.7,5100,
"COc1ccc(Cl)c(C(=O)c2c[nH]c(C(=O)Nc3cnc(CN4CCNCC4)nc3)c2)c1F [Example 250, 4-(6-Chloro-2-fluoro-3-methoxybenzoyl)-N-(2-(piperazin-1-ylmethyl)pyrimidin-5-yl)-1H-pyrrole-2-carboxamide]",573,15.8,,
"O=C(Nc1ccc(NCCN2CCCCC2)nc1)c1cc(C(=O)c2c(Cl)ccc(Cl)c2F)c[nH]1 [Example 264, 4-(3,6-Dichloro-2-fluorobenzoyl)-N-(6-((2-(piperidin-1-yl)ethyl)amino)pyridin-3-yl)-1H-pyrrole-2-carboxamide]",142,11.1,,
"COc1ccc(Cl)c(C(=O)c2c[nH]c(C(=O)Nc3cnc(CC4CCNCC4)nc3)c2)c1F [Example 252, 4-(6-Chloro-2-fluoro-3-methoxybenzoyl)-N-(2-(piperidin-4-ylmethyl)pyrimidin-5-yl)-1H-pyrrole-2-carboxamide]",627,12.2,,
COCCN(C)Cc1ccc(NC(=O)c2cc(C(=O)c3c(Cl)ccc(Cl)c3F)c[nH]2)cn1 [Example 278],40,34,,
